Tests used:
[1] = test system: S. aureus ATCC 29213; test: Murine peritoneal sepsis model; assay type: in vivo, C57BL/6J mice; conditions: 5 mg/kg intraperitoneally, preliminary experiments (not shown)
[2] = NMR interaction with Lipid II; assay type: binding; conditions: 0.15 mM Lipid II + 0.15 mM compound, d6-DMSO, 25° C.
Procedure: The NMR samples included 0.15 mM Lipid II, 0.15 mM BAS00127538 compound, or 0.15 mM Lipid II+0.15 mM BAS00127538 compound. All samples were dissolved in 90% double distilled H20+10% DMSO, incubated for 30 minutes, freeze-dried, and then dissolved in 300 uL of d6-DMSO. NMR experiments were carried out at 25° C. on an 800 MHz Bruker Avance NMR spectrometer (800.27 MHz for protons) equipped with a pulse-field gradient unit, four frequency channels, and a triple resonance TXI cryoprobe (Bruker Biospin, Billerica, Mass.). 1D proton experiments were collected to probe for chemical shift changes and 2D TOCSY (30, 60, and 90 msec spinlock times), 2D NOESY (150 and 300 msec mixing times), and natural abundance ^13C-HSQC experiments were collected to determine proton and carbon chemical shift assignments.
To confirm the binding of defensins mimetic BAS00127538 to Lipid II the inventors observed by SPR, their interaction was studied directly by NMR (FIG. 7). Specifically, the inventors used 1D proton NMR spectra to determine if any chemical shift changes occur when the compound was added to 3-Lipid II. […] This Figure depicts an analysis of 2D TOCSY spectra collected at 800 MHz of the aromatic region of compound BAS00127538 alone (black) overlaid with spectra of compound bound to Lipid II (red). […]

[3] = test system: Escherichia coli ATCC 25922; test: 96-well turbidimetric antibacterial killing assay, E. coli; assay type: cell-based; conditions: E. coli
Procedure: The antibacterial activity of defensin mimetics against Staphylococcus aureus ATCC 29213 and Escherichia coli 25922 was carried out in a 96-well turbidimetric assay essentially as described (Ericksen, B., Wu, Z., Lu, W., and Lehrer, R. I. (2005) Antimicrob Agents Chemother 49, 269-275) with the following modifications: compounds were exposed for 30 min to […] prior to addition of […] in 10 mM phosphate buffer containing 5% DMSO. Bacterial growth was monitored for 12 hours and data were analyzed as described (Ericksen, et al). Determination of MICs was performed by Micromyx, LLC (Kalamazoo, Mich.) according to CLSI standards (CLSI. (2009) Methods for Dilution Antimicrobial Susceptibility Tests for Bacteria That Grow Aerobically; Approved Standard—Eighth Edition.)
The inventors have previously reported on the antibacterial activity of HNP1 and all of its structurally uncompromised single alanine mutants against S. aureus (Wei, G., Pazgier, M., de Leeuw, E., Rajabi, M., Li, J., Zou, G., Jung, G., Yuan, W., Lu, W. Y., Lehrer, R. I., and Lu, W. J Biol Chem 285, 16275-16285). […] If these residues are indeed important for Lipid II binding, one would expect that replacement by alanine will not affect killing of Gram-negative bacteria. […] In particular, FIG. 12 depicts killing of E. coli by HNP-1 Lipid II single alanine mutants. Survival curves of E. coli ATCC 25922 exposed to HNP-1 or HNP-1 single alanine mutants at concentrations varying two-fold from […]. Bacteria were exposed to defensin peptides for 120 min. Each curve is the mean of two separate experiments (±S.D.). Points scored as zero survival could not be plotted.

## CN1/C(=C/C=C/c2cc(-c3ccccc3)cc(-c3ccccc3)[o+]2)C(C)(C)c2ccccc21 [BAS00127538, 2,4-diphenyl-6-[(1E)-3-[(2E)-1,3,3-trimethyl-2,3-dihydro-1H-indol-2-ylidene]prop-1-en-1-yl]-1$1^4-pyran-1-ylium]
[1]
  Clearing non-lethal doses of S. aureus 29213: most efficacious
[2]
  Interaction with Lipid II by NMR analysis: found to interact
[3]
  Concentration at which compound was 100% bactericidal against E. coli: 7.8 µM
